Experimental data: patent US12435071B2, “Bryostatin compounds and methods of preparing the same” (priority 2016, dated 2025)
Like-named read-outs stand apart in the source and are kept apart here.

Assays:
PKC beta-I = target: T1, PKC beta-I (Homo sapiens, UniProt P05771); test: PKC binding assay, competition with 3H-PDBu (glass-fiber filtration)
T1 construct: purchased Invitrogen
Procedure: (§1) This procedure entails a glass-fiber filtration method to determine bound radioligand. PKC-beta-I and PKC-delta were selected for preliminary evaluation. The former is a member of the conventional PKC subfamily while the latter is a member of the novel PKC sub-family (A. C. Newton. Protein Kinase C: Structure, Function, and Regulation. J. Biol. Chem. 270, 28495-28498 (1995)).
(§2) To a 50 mL polypropylene tube was added Tris-HCl (pH 7.4, 1 M, 1 mL), KCl (1 M, 2 mL), CaCl2 (0.1 M, 30 μL), and bovine serum albumin (40 mg, Sigma-Aldrich). This mixture was diluted to 20 mL with deionized H2O and mixed gently. The buffer was stored on ice until use.
(§3) For every two assays, 3.5 mg phosphatidylserine (Avanti Polar Lipids, porcine, 25 mg/mL CHCl3 solution) was concentrated by removing chloroform under a stream of nitrogen followed by reduced pressure. The solid P S was suspended as vesicles in freshly prepared PKC binding assay buffer (3.5 mL) by sonicating six times for 30 sec, with a 30 sec rest between sonications (Branson Sonifier 250, power=2, 50% duty cycle). The resulting milky cloudy mixture (1 mg/mL) was stored on ice until use.
(§4) Assay PKC was prepared by dissolving a 4 μg aliquot of the indicated recombinant human PKC isoform (Invitrogen) into 11.6 mL of PKC binding assay buffer (this amount is sufficient for two assays). The diluted PKC was stored on ice for immediate use.
(§5) The resulting 500 nM stock solution was further diluted with DMSO to 30 nM.
(§6) Compound dilutions were prepared by serially diluting from a chosen “high” concentration by factors of 3 or 4. For each analog compound, seven concentrations were used to define the inhibition curve (i.e. for exocyclic alkene 34, the analog concentrations used were 3000 nM, 750 nM, 188 nM, 46.9 nM, 11.7 nM, 2.93 nM, and 0.73 nM).
(§7) The resulting solution was vortexed to mix and stored on ice.
(§8) • Glass-fiber filters (Whatman GF/B) were prepared by soaking them in a solution of aqueous polyethyleneimine (10% by vol, 18 mL) in deionized water (600 mL) for >1 h. • 500 mL “rinsing buffer” of 20 mM Tris, pH 7.4 was cooled on ice for the duration of the incubation period and for the remainder of the assay.
(§9) Triplicate data points were obtained for each analog concentration. […]
(§10) The resulting filters had circular perforations for each data point, which were removed with forceps and placed in a scintillation vial. Scintillation vials were filled with Bio-Safe II scintillation fluid (5 mL) and measured for radioactivity using a Beckman LS 6000SC scintillation counter. […] The data were plotted—cpm vs. log(concentration)—using Prism® by GraphPad Software and an IC50 was determined using that program's built-in one-site competition least squares regression function.

PKC delta = target: T2, PKC delta (Homo sapiens, UniProt Q05655); test: as above; settings: recombinant human PKC isoform, parentheses = 95% confidence interval
T2 construct: purchased Invitrogen
T2 sequence (Q05655 whole entry, canonical isoform): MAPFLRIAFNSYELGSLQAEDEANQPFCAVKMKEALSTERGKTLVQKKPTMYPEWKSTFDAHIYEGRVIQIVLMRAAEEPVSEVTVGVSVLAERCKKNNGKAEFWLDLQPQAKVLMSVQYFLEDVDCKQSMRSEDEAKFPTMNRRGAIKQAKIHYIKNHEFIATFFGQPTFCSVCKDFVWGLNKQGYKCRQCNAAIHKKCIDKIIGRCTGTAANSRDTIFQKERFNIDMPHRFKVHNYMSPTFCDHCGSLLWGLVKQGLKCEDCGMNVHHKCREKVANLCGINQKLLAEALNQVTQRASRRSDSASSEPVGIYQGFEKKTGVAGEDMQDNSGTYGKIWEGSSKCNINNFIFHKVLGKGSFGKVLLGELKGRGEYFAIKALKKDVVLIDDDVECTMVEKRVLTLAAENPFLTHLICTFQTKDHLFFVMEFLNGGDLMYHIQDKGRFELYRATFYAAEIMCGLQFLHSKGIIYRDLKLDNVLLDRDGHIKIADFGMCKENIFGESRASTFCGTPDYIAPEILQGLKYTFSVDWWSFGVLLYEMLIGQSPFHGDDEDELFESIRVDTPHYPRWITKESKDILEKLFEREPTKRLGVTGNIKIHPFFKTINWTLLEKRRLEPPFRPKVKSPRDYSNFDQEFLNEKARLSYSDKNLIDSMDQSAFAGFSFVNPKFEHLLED
Procedure: as §1, §2, §3, §4, §5, §6, §7, §8, §9, §10

[1] = recombinant human PKC isoform, competition with 3H-PDBu, parentheses = 95% confidence interval, read-out: PKC Ki (nM) beta-1

T1 sequence (P05771 whole entry): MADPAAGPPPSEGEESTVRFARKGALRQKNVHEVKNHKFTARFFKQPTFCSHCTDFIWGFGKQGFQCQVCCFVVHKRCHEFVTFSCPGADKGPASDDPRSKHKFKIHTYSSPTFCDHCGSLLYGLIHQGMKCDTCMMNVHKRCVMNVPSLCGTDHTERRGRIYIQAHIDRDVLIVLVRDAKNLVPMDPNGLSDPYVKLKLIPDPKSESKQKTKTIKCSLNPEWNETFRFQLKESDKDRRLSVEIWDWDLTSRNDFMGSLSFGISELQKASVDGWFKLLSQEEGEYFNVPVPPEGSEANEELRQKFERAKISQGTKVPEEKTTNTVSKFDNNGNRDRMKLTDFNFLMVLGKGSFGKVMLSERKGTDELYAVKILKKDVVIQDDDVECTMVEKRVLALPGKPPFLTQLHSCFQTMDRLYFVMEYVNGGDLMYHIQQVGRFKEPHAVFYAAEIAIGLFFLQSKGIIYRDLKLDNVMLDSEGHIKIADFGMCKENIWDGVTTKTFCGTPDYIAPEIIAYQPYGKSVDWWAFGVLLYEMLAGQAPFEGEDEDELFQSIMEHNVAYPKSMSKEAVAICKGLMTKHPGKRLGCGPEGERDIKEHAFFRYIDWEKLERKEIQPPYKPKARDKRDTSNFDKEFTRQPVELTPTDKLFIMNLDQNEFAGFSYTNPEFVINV

SMILES | Ki (PKC beta-I) [nM] | Ki (PKC beta-I; [1]) [nM] | Ki (PKC delta) [nM]
CCC/C=C/C=C/C(=O)O[C@H]1/C(=C/C(=O)OC)C[C@H]2CC([C@@H](C)O)OC(=O)C[C@@H](O)C[C@@H]3C[C@H](OC(C)=O)C(C)(C)[C@](O)(C[C@@H]4C/C(=C\C(=O)OC)C[C@H](/C=C/C(C)(C)[C@]1(O)O2)O4)O3 (stereo partly shown) [(E)-enoate 35] | 12 | – | –
C=C1C[C@H]2C[C@]3(O)O[C@H](C[C@H](O)CC(=O)OC([C@@H](C)O)C[C@@H]4C/C(=C\C(=O)OC)[C@H](OC(=O)C#CCCCCC)[C@@](O)(O4)C(C)(C)/C=C/[C@@H](C1)O2)C[C@H](OC(C)=O)C3(C)C (stereo partly shown) [alkene 34] | – | 3.9 | 0.76
CCC/C=C/C=C/C(=O)O[C@H]1/C(=C/C(=O)OC)C[C@H]2C[C@H]([C@@H](C)O)OC(=O)C[C@H](O)C[C@@H]3C[C@H](OC(C)=O)C(C)(C)[C@](O)(C[C@@H]4C/C(=C/C(=O)OC)C[C@H](/C=C/C(C)(C)[C@]1(O)O2)O4)O3 [bryostatin 1, reference compound] | – | 1.6 | –
